Legend:
Format in all cases: cell-based
[1] = test system: Transforming Growth Factor-β (TGFβ); assay: TGFβ content of MSC conditioned medium by ELISA; settings: passage 4; 5 mM NAM, 50 ng/ml FGF4; serum- and FGF4-free medium for 24 hours
Experimental: FIG. 23 is a bar graph illustrating enhancement of Transforming Growth Factor-β (TGFβ) content of conditioned medium from nicotinamide and FGF4-treated MSC cultures. Bone marrow mesenchymal stem cells were isolated and cultured as in FIG. 22 above. Cultured media was changed to medium without fetal bovine serum or FGF4 24 hours prior to passage 4, collected from the passage 4 cultures and assayed for TGFβ content by ELISA. −NAM, −FGF4=control; +NAM−FGF4=5 mM NAM, +NAM+FGF4=5 mM NAM+50 ng/ml FGF4. Note the significant effect of combined FGF4 and nicotinamide on TGFβ secretion; Mesenchymal stem cells cultured with nicotinamide and FGF4 have enhanced expansion potential, and maintain an undifferentiated state, compared to mesenchymal stem cells cultured in unsupplemented medium, or mesenchymal stem cells cultured with added nicotinamide alone. In order to assess whether mesenchymal stem cells cultured with nicotinamide or nicotinamide and FGF4 modify the culture medium in a unique manner, secretion of biologically active molecules into the culture medium was measured by ELISA, after depletion of the FGF4 from the medium.

mesenchymal stem cells [2] = assay: In-vitro wound healing assay on MSC cultures; settings: passage 3; 4 days post wound formation
Experimental: FIGS. 20A-B are photographs illustrating results of an in vitro wound healing assay which was performed on MSCs cultured with (FIG. 20B) or without (FIG. 20A) nicotinamide at passage 3. Wound healing was observed 4 days post wound formation. In-vitro wound healing assay: Wound was performed in MSCs cultures at ˜70% confluence using 200 μl or 1000 μl tip. Four days later the cells were fixated using 10% cold Formalin (Sigma) and stained with Harris Hematoxylin (Sigma). The in-vitro wound healing process was evaluated using microscope.

mesenchymal stem cells [3] = assay: MSC cell size (Cedex cell counter) and granularity (side scatter FACS)
Experimental: Measurement of cell size: Cell size was measured using Cedex Automated Cell Counter (Innovatis). The cells were diluted 1:2 in Trypan Blue (Sigma) and cell size was measured automatically under microscope. Measurement of granularicity: Following trypsin treatment, the cells were analyzed for granularicity by side scatter FACS.

[4] = test system: bone marrow derived mesenchymal stem cells; assay: Bone marrow derived MSC seeding and expansion with nicotinamide
Experimental: FIG. 11 is a bar graph illustrating % of BM derived adherent cells expressing mesenchymal stem cells markers in culture seeded +/−NAM, prior to the first passage. Mononuclear cells were isolated from bone marrow using Ficoll and the “plastic adherence” method in the presence or absence of Nicotinamide. Non-adherent cells were washed away 3-4 days later and the media was replaced every 3-4 days. FACS analysis was performed in order to obtain expression levels of surface molecules prior to the first passage (8 days post-seeding). Isolation: Bone marrow derived and adipose tissue derived mesenchymal cells were isolated based on their plastic adherence potential in expansion medium containing: High glucose DMEM and 10% Fetal Bovine Serum (FBS, Hyclone, Logan, Utah, USA) supplemented with 0.05 mg/ml Gentamicin (Sigma) and 2 mM L-glutamine (Biological Industries, Israel). Cells were allowed to adhere for 3-4 days and non-adherent cells were washed out with medium changes. The medium was further exchanged with fresh medium every 3-4 days. Maintenance and expansion: Once adherent cells reached approximately 80-90% confluency, they were detached with 0.25% trypsin-EDTA (Sigma), washed twice in DMEM and 10% Fetal Bovine Serum, with centrifugation, 400 g, 5 minutes, and re-plated at a 1:2 to 1:1000 dilution under the same culture conditions. Measurement of number of cells in culture: Cell number was measured using Cedex Automated Cell Counter (Innovatis). The cells were diluted 1:2 in Trypan Blue (Sigma) and cell number was measured automatically under microscope. Treatment of mesenchymal cultures with nicotinamide: Mesenchymal cultures were initiated as described above, […], or in combination with growth factors or growth factors alone, incubated at 37° C. in a humidified atmosphere of 5% CO2 in air. At each passage and at each medium exchange, the cultures were supplemented with mesenchymal medium, nicotinamide and growth factors.

[5] = test system: Hepatocyte Growth Factor (HGF); assay: HGF content of MSC conditioned medium by ELISA; settings: passage 4; 5 mM NAM, 50 ng/ml FGF4; serum- and FGF4-free medium for 24 hours
From the text: FIG. 22 is a bar graph illustrating enhancement of Hepatocyte Growth Factor (HGF) content of conditioned medium from nicotinamide and FGF4-treated MSC cultures. Bone marrow mesenchymal stem cells were isolated using Ficoll and plastic adherence method, and cultured for several passages with fetal bovine serum, with added nicotinamide and FGF4 (+NAM+FGF4), with added nicotinamide (+NAM−FGF4) and without added nicotinamide or FGF (−NAM−FGF4). Twenty four hours before passage 4, the media was changed and fresh media without fetal bovine serum or FGF4 was added. The cultured media from passage 4 cultures was collected and assayed for HGF content by ELISA. −NAM, −FGF4=control; +NAM−FGF4=5 mM NAM, +NAM+FGF4=5 mM NAM+50 ng/ml FGF4. Note the significant effect of combined FGF4 and nicotinamide on HGF secretion; Mesenchymal stem cells cultured with nicotinamide and FGF4 have enhanced expansion potential, and maintain an undifferentiated state, compared to mesenchymal stem cells cultured in unsupplemented medium, or mesenchymal stem cells cultured with added nicotinamide alone. In order to assess whether mesenchymal stem cells cultured with nicotinamide or nicotinamide and FGF4 modify the culture medium in a unique manner, secretion of biologically active molecules into the culture medium was measured by ELISA, after depletion of the FGF4 from the medium.

NC(=O)c1cccnc1 [nicotinamide, Nicotinamide]
TGF-β level in conditioned medium [1]: elevated levels
wound closure capacity of MSCs (mesenchymal stem cells [2]): higher wound closure capacity
cell size / undifferentiated state of MSCs cultured with FGF4 (mesenchymal stem cells [3]; FGF4 50 ng/ml, NAM 5 mM, Cedex cell counter): preserves the undifferentiated state
cell size and granularity of MSCs grown with nicotinamide vs without (mesenchymal stem cells [3]; identical conditions without nicotinamide as comparison): smaller and less granular
expansion rate of bone marrow derived MSCs ([4]; low concentration of nicotinamide, e.g. 0.1 mM): insignificant effect
MSC doubling time ([4]; nicotinamide added from initiation of culture and at each passage): decreasing doubling time
seeding efficacy (selection) of bone marrow derived MSCs ([4]; seeded with or without nicotinamide): increased the seeding efficacy
HGF level in conditioned medium [5]: elevated levels

Reference: US20150064273A1, “Mesenchymal Stem Cells Conditioned Medium and Methods of Generating and Using the Same” (Gamida-Cell Ltd., priority 2012, published 2015)
